From US12662479B2 (Foghorn Therapeutics Inc., priority 2020, dated 2026)
Counter-ions that a name gives are not always drawn.

Key:
[1] = target: T1, HiBit-BRM fusion protein (Homo sapiens, UniProt P51531); assay: HiBiT-BRM cell-based degradation assay (Nano-Glo HiBiT Lytic Detection, 24 h); details: HeLa cells expressing HiBiT-BRM; for DC50: read-out: BRM HiBit Degradation IC50; for BRM HiBit Degradation Maximum measured: top dose 30 μM
T1 construct: expressed in transfected cells
Method in brief: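 HeLa cells stably expressing HiBiT-BRM were dosed with compounds (10-point 3-fold dilutions, 30 μM final top dose, duplicate) for 24 h. HiBiT signal was read by lytic LgBiT complementation luminescence. Percent degradation was normalised to DMSO (high control) and 2 μM of a reference BRM/BRG1 degrader (low control).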

[2] = target: T2, HiBit-BRG1 fusion protein (Homo sapiens, UniProt P51532); assay: HiBiT-BRG1 cell-based degradation assay (Nano-Glo HiBiT Lytic Detection, 24 h); details: HeLa cells expressing HiBit-BRG1 and LgBit; for DC50: read-out: BRG1 HiBit Degradation IC50; for Dmax: HeLa, top dose 30 μM, read-out: BRG1 HiBit Degradation Maximum measured
T2 construct: expressed in transfected cells
Method in brief: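 Stable HeLa line expressing HiBiT-BRG1 and LgBiT, seeded at 5000 cells/well; luminescence read after lytic Nano-Glo HiBiT reagent and 10 min shaking at RT. % degradation normalised between DMSO (high control) and 2 μM reference BRM/BRG1 degrader (low control).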

T1 sequence (P51531 whole entry, the tested form may be a part): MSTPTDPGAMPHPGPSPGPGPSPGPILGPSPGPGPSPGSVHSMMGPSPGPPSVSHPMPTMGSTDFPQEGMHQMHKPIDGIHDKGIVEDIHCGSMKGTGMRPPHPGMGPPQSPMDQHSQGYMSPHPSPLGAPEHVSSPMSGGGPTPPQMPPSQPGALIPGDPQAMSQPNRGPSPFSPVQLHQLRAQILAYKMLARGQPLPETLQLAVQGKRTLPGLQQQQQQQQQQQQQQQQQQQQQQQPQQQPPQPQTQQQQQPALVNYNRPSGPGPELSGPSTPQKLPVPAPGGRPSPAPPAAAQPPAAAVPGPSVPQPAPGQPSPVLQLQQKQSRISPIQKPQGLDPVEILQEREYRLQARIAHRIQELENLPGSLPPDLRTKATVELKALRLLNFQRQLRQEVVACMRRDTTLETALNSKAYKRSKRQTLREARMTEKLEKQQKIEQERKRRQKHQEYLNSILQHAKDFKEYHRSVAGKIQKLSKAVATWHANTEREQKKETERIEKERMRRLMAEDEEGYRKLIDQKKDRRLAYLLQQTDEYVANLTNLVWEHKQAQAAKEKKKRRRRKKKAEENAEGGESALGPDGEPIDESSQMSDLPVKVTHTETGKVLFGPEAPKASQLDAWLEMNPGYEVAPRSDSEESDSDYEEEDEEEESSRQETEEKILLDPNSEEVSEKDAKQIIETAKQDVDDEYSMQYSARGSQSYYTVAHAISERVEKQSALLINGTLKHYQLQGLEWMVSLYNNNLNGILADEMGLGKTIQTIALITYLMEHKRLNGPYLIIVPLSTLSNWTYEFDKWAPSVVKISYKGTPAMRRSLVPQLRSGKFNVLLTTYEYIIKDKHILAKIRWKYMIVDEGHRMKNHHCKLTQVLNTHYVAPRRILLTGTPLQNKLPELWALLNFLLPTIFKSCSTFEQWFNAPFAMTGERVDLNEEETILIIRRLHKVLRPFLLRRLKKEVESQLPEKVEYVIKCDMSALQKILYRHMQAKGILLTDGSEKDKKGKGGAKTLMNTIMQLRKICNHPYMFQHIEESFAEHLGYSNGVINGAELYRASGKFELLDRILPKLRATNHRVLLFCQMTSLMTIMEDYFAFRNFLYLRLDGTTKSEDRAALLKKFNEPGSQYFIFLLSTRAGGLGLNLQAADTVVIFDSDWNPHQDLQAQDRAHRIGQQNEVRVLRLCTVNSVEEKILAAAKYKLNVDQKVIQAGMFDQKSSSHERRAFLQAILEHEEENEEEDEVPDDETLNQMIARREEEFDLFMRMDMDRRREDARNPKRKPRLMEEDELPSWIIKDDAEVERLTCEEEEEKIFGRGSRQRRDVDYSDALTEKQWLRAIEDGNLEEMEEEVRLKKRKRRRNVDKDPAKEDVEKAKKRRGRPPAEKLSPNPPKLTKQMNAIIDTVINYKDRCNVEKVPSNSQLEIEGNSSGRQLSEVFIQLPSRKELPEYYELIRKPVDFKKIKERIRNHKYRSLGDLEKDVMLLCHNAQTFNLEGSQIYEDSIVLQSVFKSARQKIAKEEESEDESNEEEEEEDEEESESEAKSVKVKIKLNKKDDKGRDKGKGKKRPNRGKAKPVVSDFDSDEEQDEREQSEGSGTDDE
T2 sequence (P51532 whole entry, the tested form may be a part): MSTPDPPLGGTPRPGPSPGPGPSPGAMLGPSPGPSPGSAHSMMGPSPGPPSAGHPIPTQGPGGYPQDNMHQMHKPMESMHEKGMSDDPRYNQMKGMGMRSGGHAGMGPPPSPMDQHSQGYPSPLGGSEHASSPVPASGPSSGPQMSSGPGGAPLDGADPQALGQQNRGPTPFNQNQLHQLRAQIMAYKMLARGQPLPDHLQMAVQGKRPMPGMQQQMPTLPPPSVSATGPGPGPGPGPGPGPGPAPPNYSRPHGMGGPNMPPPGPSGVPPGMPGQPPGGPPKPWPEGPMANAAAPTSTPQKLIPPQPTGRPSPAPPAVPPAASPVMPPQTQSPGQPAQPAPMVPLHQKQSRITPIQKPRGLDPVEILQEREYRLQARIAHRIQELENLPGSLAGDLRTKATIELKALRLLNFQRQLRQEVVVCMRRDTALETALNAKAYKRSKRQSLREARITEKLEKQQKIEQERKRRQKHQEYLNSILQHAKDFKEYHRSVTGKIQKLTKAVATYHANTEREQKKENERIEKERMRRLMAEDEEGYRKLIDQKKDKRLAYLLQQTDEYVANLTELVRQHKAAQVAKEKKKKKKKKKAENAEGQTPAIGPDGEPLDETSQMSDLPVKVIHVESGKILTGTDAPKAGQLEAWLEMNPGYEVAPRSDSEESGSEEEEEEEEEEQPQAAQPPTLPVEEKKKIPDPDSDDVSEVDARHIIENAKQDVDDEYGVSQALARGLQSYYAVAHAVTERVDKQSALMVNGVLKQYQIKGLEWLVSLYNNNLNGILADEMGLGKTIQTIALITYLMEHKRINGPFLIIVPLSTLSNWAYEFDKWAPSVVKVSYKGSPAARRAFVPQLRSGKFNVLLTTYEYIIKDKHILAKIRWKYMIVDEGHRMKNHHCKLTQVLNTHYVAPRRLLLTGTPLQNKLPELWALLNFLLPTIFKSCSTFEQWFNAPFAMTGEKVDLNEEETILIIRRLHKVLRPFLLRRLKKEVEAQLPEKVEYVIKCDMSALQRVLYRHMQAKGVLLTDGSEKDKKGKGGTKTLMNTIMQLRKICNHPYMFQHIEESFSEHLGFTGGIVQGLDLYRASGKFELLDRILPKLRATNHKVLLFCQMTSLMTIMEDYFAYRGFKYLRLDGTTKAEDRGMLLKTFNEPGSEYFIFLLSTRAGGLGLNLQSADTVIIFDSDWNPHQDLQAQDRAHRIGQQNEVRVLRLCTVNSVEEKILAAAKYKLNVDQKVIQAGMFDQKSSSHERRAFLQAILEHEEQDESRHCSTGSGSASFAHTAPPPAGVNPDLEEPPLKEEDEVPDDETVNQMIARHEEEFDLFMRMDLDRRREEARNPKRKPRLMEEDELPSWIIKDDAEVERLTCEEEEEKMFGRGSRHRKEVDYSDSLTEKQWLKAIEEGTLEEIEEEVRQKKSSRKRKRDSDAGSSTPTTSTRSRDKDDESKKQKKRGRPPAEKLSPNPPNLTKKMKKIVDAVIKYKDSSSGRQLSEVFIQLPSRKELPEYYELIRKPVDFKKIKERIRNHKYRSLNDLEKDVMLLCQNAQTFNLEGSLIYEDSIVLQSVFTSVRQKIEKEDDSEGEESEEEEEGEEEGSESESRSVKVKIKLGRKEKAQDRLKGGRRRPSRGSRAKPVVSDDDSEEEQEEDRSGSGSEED

SMILES	DC50 [1] [nM]	BRM HiBit Degradation Maximum measured [1]	DC50 [2] [nM]	Dmax [2] [%]
Cc1ncsc1-c1ccc(CNC(=O)[C@@H]2C[C@@H](O)CN2C(=O)[C@@H](NC(=O)CCCCCNC(=O)C2(c3cc(-c4cccc(-c5csc(NC(=O)CNC(=O)c6ccn(S(C)(=O)=O)c6)n5)c4)ccn3)CC2)C(C)(C)C)cc1 [Compound 100, N-(2-((4-(3-(2-(1-((6-(((S)-1-((2S,4R)-4-hydroxy-2-((4-(4-methylthiazol-5-yl)benzyl)carbamoyl)pyrrolidin-1-yl)-3,3-dimethyl-1-oxobutan-2-yl)amino)-6-oxohexyl)carbamoyl)cyclopropyl)-pyridin-4-yl)phenyl)thiazol-2-yl)amino)-2-oxoethyl)-1-(methylsulfonyl)-1H-pyrrole-3-carboxamide]	100 to 1000	A (‘A’ = Maximum degradation >75%)	< 100	> 75
Cc1ncsc1-c1ccc(CNC(=O)[C@@H]2C[C@@H](O)CN2C(=O)[C@@H](NC(=O)CCOCCOCCC(=O)NCc2cccc(-c3cccc(-c4csc(NC(=O)CNC(=O)c5ccn(S(C)(=O)=O)c5)n4)c3)c2)C(C)(C)C)cc1 [Compound 1, N-(2-((4-(3′-((S)-14-((2S,4R)-4-hydroxy-2-((4-(4-methylthiazol-5-yl)benzyl)carbamoyl)pyrrolidine-1-carbonyl)-15,15-dimethyl-3,12-dioxo-6,9-dioxa-2,13-diazahexadecyl)-[1,1′-biphenyl]-3-yl)thiazol-2-yl)amino)-2-oxoethyl)-1-(methylsulfonyl)-1H-pyrrole-3-carboxamide]	100 to 1000	A (‘A’ = Maximum degradation >75%)	100 to 1000	> 75
CS(=O)(=O)n1ccc(C(=O)NCC(=O)Nc2nc(-c3cccc(-c4cccc(CNC(=O)C5CC5CNC(=O)COc5ccc6c(c5)C(=O)N(C5CCC(=O)NC5=O)C6=O)c4)c3)cs2)c1 (stereo not drawn) [Compound 61, N-[2-[[4-[3-[3-[[[2-[[[2-[2-(2,6-dioxo-3-piperidyl)-1,3-dioxo-isoindolin-5-yl]oxyacetyl]amino]methyl]-cyclopropanecarbonyl]amino]methyl]-phenyl]phenyl]thiazol-2-yl]amino]-2-oxo-ethyl]-1-methylsulfonyl-pyrrole-3-carboxamide]	1000 to 10000	B (‘B’ = Maximum degradation ≥50% and ≤75%)	100 to 1000	50 to 75
Cc1ncsc1-c1ccc(CNC(=O)[C@@H]2C[C@@H](O)CN2C(=O)[C@@H](NC(=O)C2CC3(CC(C(=O)NCc4cccc(-c5cccc(-c6csc(NC(=O)CNC(=O)c7ccn(S(C)(=O)=O)c7)n6)c5)c4)C3)C2)C(C)(C)C)cc1 (stereo partly drawn) [Compound 137, N2-[(2S)-1-[(2S,4R)-4-hydroxy-2-([[4-(4-methyl-1,3-thiazol-5-yl)phenyl]methyl]carbamoyl)pyrrolidin-1-yl]-3,3-dimethyl-1-oxobutan-2-yl]-N6-[[3′-(2-[2-[(1-methanesulfonylpyrrol-3-yl)formamido]acetamido]-1,3-thiazol-4-yl)-[1,1′-biphenyl]-3-yl]methyl]spiro[3.3]heptane-2,6-dicarboxamide]	> 10000	C (‘C’ = Maximum degradation <50%)	> 10000	< 50
CS(=O)(=O)n1ccc(C(=O)N[C@@H](CCOCCCC(=O)NCCOCCOCCOCCNC(=O)COc2ccc3c(c2)C(=O)N(C2CCC(=O)NC2=O)C3=O)C(=O)Nc2nc(-c3ccccc3)cs2)c1 (stereo partly drawn) [Compound 273, (2S)-4-(3-[[2-(2-[2-[2-(2-[[2-(2,6-dioxopiperidin-3-yl)-1,3-dioxoisoindol-5-yl]oxy]acetamido)ethoxy]ethoxy]ethoxy)ethyl]carbamoyl]propoxy)-2-[(1-methanesulfonylpyrrol-3-yl)formamido]-N-(4-phenyl-1,3-thiazol-2-yl)butanamide]	> 10000	C (‘C’ = Maximum degradation <50%)	> 10000	< 50
Cc1ncsc1-c1ccc(CNC(=O)[C@@H]2C[C@@H](O)CN2C(=O)[C@@H](NC(=O)CCCCCCCCCCCCCC(=O)NCc2cccc(-c3cccc(-c4csc(NC(=O)CNC(=O)c5ccn(S(C)(=O)=O)c5)n4)c3)c2)C(C)(C)C)cc1 [Compound 126, N′-[(1S)-1-[(2S,4R)-4-hydroxy-2-[[4-(4-methylthiazol-5-yl)phenyl]methylcarbamoyl]pyrrolidine-1-carbonyl]-2,2-dimethyl-propyl]-N-[[3-[3-[2-[[2-[(1-methylsulfonylpyrrole-3-carbonyl)amino]acetyl]amino]thiazol-4-yl]phenyl]phenyl]methyl]pentadecanediamide]	100 to 1000	B (‘B’ = Maximum degradation ≥50% and ≤75%)	100 to 1000	50 to 75
CS(=O)(=O)n1ccc(C(=O)N[C@@H](CCOCCCC(=O)NCCCC#Cc2ccc3c(c2)C(=O)N(C2CCC(=O)NC2=O)C3=O)C(=O)Nc2nc(-c3ccccc3)cs2)c1 (stereo partly drawn) [Compound 271, (2S)-4-[3-([5-[2-(2,6-dioxopiperidin-3-yl)-1,3-dioxoisoindol-5-yl]pent-4-yn-1-yl]carbamoyl)propoxy]-2-[(1-methanesulfonylpyrrol-3-yl)formamido]-N-(4-phenyl-1,3-thiazol-2-yl)butanamide]	> 10000	C (‘C’ = Maximum degradation <50%)	> 10000	< 50
CS(=O)(=O)n1ccc(C(=O)N[C@@H](COCc2ccc(C(=O)NCCCC#Cc3ccc4c(c3)C(=O)N(C3CCC(=O)NC3=O)C4=O)cc2)C(=O)Nc2nc(-c3ccccc3)cs2)c1 (stereo partly drawn) [Compound 204, N-[5-[2-(2,6-dioxopiperidin-3-yl)-1,3-dioxoisoindol-5-yl]pent-4-yn-1-yl]-4-[[(2S)-2-[(1-methanesulfonylpyrrol-3-yl)formamido]-2-[(4-phenyl-1,3-thiazol-2-yl)carbamoyl]ethoxy]methyl]benzamide]	> 10000	C (‘C’ = Maximum degradation <50%)	100 to 1000	50 to 75
Cc1ncsc1-c1ccc(CNC(=O)[C@@H]2C[C@@H](O)CN2C(=O)[C@@H](NC(=O)CCN2CC(C(=O)NCc3cccc(-c4cccc(-c5csc(NC(=O)CNC(=O)c6ccn(S(C)(=O)=O)c6)n5)c4)c3)C2)C(C)(C)C)cc1 [Compound 154, (2S,4R)-4-hydroxy-1-[(2S)-2-[3-[3-([[3-(2-[2-[(1-methanesulfonylpyrrol-3-yl)formamido]acetamido]-1,3-thiazol-4-yl)-[1,1-biphenyl]-3-yl]methyl]carbamoyl)azetidin-1-yl]propanamido]-3,3-dimethylbutanoyl]-N-[[4-(4-methyl-1,3-thiazol-5-yl)phenyl]methyl]pyrrolidine-2-carboxamide formate]	> 10000	C (‘C’ = Maximum degradation <50%)	> 10000	
CS(=O)(=O)n1ccc(C(=O)N[C@@H](CCOCCCC(=O)NCCOCCOCCOCCNC(=O)COc2cccc3c2C(=O)N(C2CCC(=O)NC2=O)C3=O)C(=O)Nc2nc(-c3ccccc3)cs2)c1 (stereo partly drawn) [Compound 258, (2S)-4-(3-[[2-(2-[2-[2-(2-[[2-(2,6-dioxopiperidin-3-yl)-1,3-dioxoisoindol-4-yl]oxy]acetamido)ethoxy]ethoxy]ethoxy)ethyl]carbamoyl]propoxy)-2-[(1-methanesulfonylpyrrol-3-yl)formamido]-N-(4-phenyl-1,3-thiazol-2-yl)butanamide]	> 10000	C (‘C’ = Maximum degradation <50%)	> 10000	< 50
CS(=O)(=O)n1ccc(C(=O)N[C@@H](COCc2ccc(C(=O)NCCCCS(=O)(=O)CCCNc3cccc4c3C(=O)N(C3CCC(=O)NC3=O)C4=O)cc2)C(=O)Nc2nc(-c3ccccc3)cs2)c1 (stereo partly drawn) [Compound 248, N-[4-(3-[[2-(2,6-dioxopiperidin-3-yl)-1,3-dioxoisoindol-4-yl]amino]propanesulfonyl)butyl]-4-[[(2S)-2-[(1-methanesulfonylpyrrol-3-yl)formamido]-2-[(4-phenyl-1,3-thiazol-2-yl)carbamoyl]ethoxy]methyl]benzamide]	1000 to 10000	B (‘B’ = Maximum degradation ≥50% and ≤75%)	100 to 1000	50 to 75
CS(=O)(=O)n1ccc(C(=O)N[C@@H](CCOCCCC(=O)NCCNc2ccc3c(c2)C(=O)N(C2CCC(=O)NC2=O)C3=O)C(=O)Nc2nc(-c3ccccc3)cs2)c1 (stereo partly drawn) [Compound 286, (2S)-4-[3-[(2-[[2-(2,6-dioxopiperidin-3-yl)-1,3-dioxoisoindol-5-yl]amino]ethyl)carbamoyl]propoxy]-2-[(1-methanesulfonylpyrrol-3-yl)formamido]-N-(4-phenyl-1,3-thiazol-2-yl)butanamide]	> 10000	C (‘C’ = Maximum degradation <50%)	> 10000	< 50
CS(=O)(=O)n1ccc(C(=O)N[C@@H](CCOCCCC(=O)N2CC(Oc3ccc4c(c3)C(=O)N(C3CCC(=O)NC3=O)C4=O)C2)C(=O)Nc2nc(-c3ccccc3)cs2)c1 (stereo partly drawn) [Compound 256, (2S)-4-[4-(3-[[2-(2,6-dioxopiperidin-3-yl)-1,3-dioxoisoindol-5-yl]oxy]azetidin-1-yl)-4-oxobutoxy]-2-[(1-methanesulfonylpyrrol-3-yl)formamido]-N-(4-phenyl-1,3-thiazol-2-yl)butanamide]	> 10000	C (‘C’ = Maximum degradation <50%)	> 10000	< 50
